In brackets after ≈: the same amount, converted by molar mass.

By MIC is commonly meant the lowest concentration found to suppress growth.

For the assay, the system named is Staphylococcus aureus. In words: antibiotic activity (MIC) on Staphylococcus aureus. Type of assay: cell-based.

`CO[C@H]1/C=C/O[C@@]2(C)Oc3c(C)c(O)c4c(O)c(c(/C=N/N5CCN(C)CC5)c(O)c4c3C2=O)NC(=O)/C(C)=C\C=C\[C@H](C)[C@H](O)[C@@H](C)[C@@H](O)[C@@H](C)[C@H](OC(C)=O)[C@@H]1C` [rifampicin] had an MIC of approximately 0.01 µg/mL (≈ 0.0122 µM).
